# Active and inactive are the calls of the source. No rule for the calls is given here.
# Tested on: CCRIS mutagenicity, Ames/micronucleus/aberration tests
# Test: CCRIS mutagenicity studies
# [1] = Test System: AMES SALMONELLA TYPHIMURIUM, Strain/Indicator: TA98, Metabolic Activation: NONE, Method: STANDARD PLATE
# [2] = Test System: AMES SALMONELLA TYPHIMURIUM, Strain/Indicator: TA100, Metabolic Activation: NONE, Method: STANDARD PLATE
# [3] = Test System: AMES SALMONELLA TYPHIMURIUM, Strain/Indicator: TA1535, Metabolic Activation: NONE, Method: STANDARD PLATE
# [4] = Test System: AMES SALMONELLA TYPHIMURIUM, Strain/Indicator: TA98, Metabolic Activation: HAMSTER, LIVER, S-9, AROCLOR 1254 (10%), Method: PREINCUBATION
# [5] = Test System: AMES SALMONELLA TYPHIMURIUM, Strain/Indicator: TA98, Metabolic Activation: NONE, Method: PREINCUBATION
# [6] = Test System: AMES SALMONELLA TYPHIMURIUM, Strain/Indicator: TA98, Metabolic Activation: RAT, LIVER, S-9, AROCLOR 1254 (10%), Method: PREINCUBATION
# [7] = Test System: AMES SALMONELLA TYPHIMURIUM, Strain/Indicator: TA100, Metabolic Activation: HAMSTER, LIVER, S-9, AROCLOR 1254 (10%), Method: PREINCUBATION
# [8] = Test System: AMES SALMONELLA TYPHIMURIUM, Strain/Indicator: TA100, Metabolic Activation: NONE, Method: PREINCUBATION
# [9] = Test System: AMES SALMONELLA TYPHIMURIUM, Strain/Indicator: TA100, Metabolic Activation: RAT, LIVER, S-9, AROCLOR 1254 (10%), Method: PREINCUBATION
# [10] = Test System: AMES SALMONELLA TYPHIMURIUM, Strain/Indicator: TA1535, Metabolic Activation: HAMSTER, LIVER, S-9, AROCLOR 1254 (10%), Method: PREINCUBATION
# [11] = Test System: AMES SALMONELLA TYPHIMURIUM, Strain/Indicator: TA1535, Metabolic Activation: NONE, Method: PREINCUBATION
# [12] = Test System: AMES SALMONELLA TYPHIMURIUM, Strain/Indicator: TA1535, Metabolic Activation: RAT, LIVER, S-9, AROCLOR 1254 (10%), Method: PREINCUBATION
# [13] = Test System: AMES SALMONELLA TYPHIMURIUM, Strain/Indicator: TA1537, Metabolic Activation: HAMSTER, LIVER, S-9, AROCLOR 1254 (10%), Method: PREINCUBATION
# [14] = Test System: AMES SALMONELLA TYPHIMURIUM, Strain/Indicator: TA1537, Metabolic Activation: NONE, Method: PREINCUBATION
# [15] = Test System: AMES SALMONELLA TYPHIMURIUM, Strain/Indicator: TA1537, Metabolic Activation: RAT, LIVER, S-9, AROCLOR 1254 (10%), Method: PREINCUBATION
structure (smiles),measurement,setting,value
C[Si](Cl)(Cl)Cl,mutagenic call,[1],inactive; negative
same,mutagenic call,"Test System: AMES SALMONELLA TYPHIMURIUM, Strain/Indicator: TA98, Metabolic Activation: RAT LIVER S-9, AROCLOR 1254, Method: STANDARD PLATE",inactive; negative
same,mutagenic call,[2],inactive; negative
same,mutagenic call,"Test System: AMES SALMONELLA TYPHIMURIUM, Strain/Indicator: TA100, Metabolic Activation: RAT LIVER S-9, AROCLOR 1254, Method: STANDARD PLATE",inactive; negative
same,mutagenic call,[3],inactive; negative
same,mutagenic call,"Test System: AMES SALMONELLA TYPHIMURIUM, Strain/Indicator: TA1535, Metabolic Activation: RAT LIVER S-9, AROCLOR 1254, Method: STANDARD PLATE",inactive; negative
same,mutagenic call,"Test System: AMES SALMONELLA TYPHIMURIUM, Strain/Indicator: TA1537, Metabolic Activation: NONE, Method: STANDARD PLATE",inactive; negative
same,mutagenic call,"Test System: AMES SALMONELLA TYPHIMURIUM, Strain/Indicator: TA1537, Metabolic Activation: RAT LIVER S-9, AROCLOR 1254, Method: STANDARD PLATE",inactive; negative
same,mutagenic call,"Test System: AMES SALMONELLA TYPHIMURIUM, Strain/Indicator: TA1538, Metabolic Activation: NONE, Method: STANDARD PLATE",inactive; negative
same,mutagenic call,"Test System: AMES SALMONELLA TYPHIMURIUM, Strain/Indicator: TA1538, Metabolic Activation: RAT LIVER S-9, AROCLOR 1254, Method: STANDARD PLATE",inactive; negative
same,mutagenic call,"Test System: E. COLI, Strain/Indicator: P3078 POLA, Metabolic Activation: NONE, Method: SPOT TEST",inactive; negative
same,mutagenic call,"Test System: E. COLI, Strain/Indicator: P3078 POLA, Metabolic Activation: RAT LIVER S-9, AROCLOR 1254, Method: SPOT TEST",inactive; negative
same,mutagenic call,"Test System: E. COLI, Strain/Indicator: W3110, Metabolic Activation: NONE, Method: SPOT TEST",inactive; negative
same,mutagenic call,"Test System: E. COLI, Strain/Indicator: W3110, Metabolic Activation: RAT LIVER S-9, AROCLOR 1254, Method: SPOT TEST",inactive; negative
same,mutagenic call,"Test System: MOUSE LYMPHOMA, Strain/Indicator: L5178Y (TK+/TK-), Metabolic Activation: NONE, Method: SUSPENSION/PLATE",inactive; negative
same,mutagenic call,"Test System: MOUSE LYMPHOMA, Strain/Indicator: L5178Y (TK+/TK-), Metabolic Activation: RAT, LIVER, S-9, Method: SUSPENSION/PLATE",inactive; negative
CCN(N=O)C(=O)N(C)C,mutagenic call,[3],active; positive
same,mutagenic call,"Test System: AMES SALMONELLA TYPHIMURIUM, Strain/Indicator: TA1535, Metabolic Activation: RAT, LIVER, S-9, BETA-NAPHTHOFLAVONE AND PHENOBARBITAL, Method: STANDARD PLATE",active; positive
NCCCCCCN,mutagenic call,[4],inactive; negative
same,mutagenic call,[5],inactive; negative
same,mutagenic call,[6],inactive; negative
same,mutagenic call,[7],inactive; negative
same,mutagenic call,[8],inactive; negative
same,mutagenic call,[9],inactive; negative
same,mutagenic call,[10],inactive; negative
same,mutagenic call,[11],inactive; negative
same,mutagenic call,[12],inactive; negative
same,mutagenic call,[13],inactive; negative
same,mutagenic call,[14],inactive; negative
same,mutagenic call,[15],inactive; negative
O=[N+]([O-])c1ccc2c(c1)CCc1cc3c(cc1-2)CCCC3,mutagenic call,"Test System: AMES SALMONELLA TYPHIMURIUM, Strain/Indicator: TA98(1,8-DNP6), Metabolic Activation: NONE",active; positive
same,mutagenic call,"Test System: AMES SALMONELLA TYPHIMURIUM, Strain/Indicator: TA98(1,8-DNP6), Metabolic Activation: RAT, LIVER, S-9, AROCLOR 1254",active; positive
same,mutagenic call,"Test System: AMES SALMONELLA TYPHIMURIUM, Strain/Indicator: TA98(NR), Metabolic Activation: NONE",active; positive
same,mutagenic call,"Test System: AMES SALMONELLA TYPHIMURIUM, Strain/Indicator: TA98(NR), Metabolic Activation: RAT, LIVER, S-9, AROCLOR 1254",active; positive
same,mutagenic call,"Test System: AMES SALMONELLA TYPHIMURIUM, Strain/Indicator: TA98, Metabolic Activation: NONE",active; positive
same,mutagenic call,"Test System: AMES SALMONELLA TYPHIMURIUM, Strain/Indicator: TA98, Metabolic Activation: RAT, LIVER, S-9, AROCLOR 1254",active; positive
same,mutagenic call,"Test System: AMES SALMONELLA TYPHIMURIUM, Strain/Indicator: TA100(NR), Metabolic Activation: NONE",active; positive
same,mutagenic call,"Test System: AMES SALMONELLA TYPHIMURIUM, Strain/Indicator: TA100(NR), Metabolic Activation: RAT, LIVER, S-9, AROCLOR 1254",active; positive
same,mutagenic call,"Test System: AMES SALMONELLA TYPHIMURIUM, Strain/Indicator: TA100, Metabolic Activation: NONE",active; positive
same,mutagenic call,"Test System: AMES SALMONELLA TYPHIMURIUM, Strain/Indicator: TA100, Metabolic Activation: RAT, LIVER, S-9, AROCLOR 1254",active; positive
same,mutagenic call,"Test System: AMES SALMONELLA TYPHIMURIUM, Strain/Indicator: TA104, Metabolic Activation: NONE",active; positive
same,mutagenic call,"Test System: AMES SALMONELLA TYPHIMURIUM, Strain/Indicator: TA104, Metabolic Activation: RAT, LIVER, S-9, AROCLOR 1254",active; positive
CCCCN(CC(O)c1ccc([O-])c([N+]#N)c1)N=O (configuration not stated),mutagenic call,[5],active; positive
same,mutagenic call,"Test System: AMES SALMONELLA TYPHIMURIUM, Strain/Indicator: TA98, Method: PREINCUBATION",active; positive
same,mutagenic call,[8],active; positive
same,mutagenic call,"Test System: AMES SALMONELLA TYPHIMURIUM, Strain/Indicator: TA100, Method: PREINCUBATION",active; positive
COCCOCCOP1(OCCOCCOC)=NP(OCCOCCOC)(OCCOCCOC)=NP(OCCOCCOC)(OCCOCCOC)=N1,mutagenic call,[1],inactive; negative
same,mutagenic call,"Test System: AMES SALMONELLA TYPHIMURIUM, Strain/Indicator: TA98, Metabolic Activation: RAT, LIVER, S-9, AROCLOR 1254, Method: STANDARD PLATE",inactive; negative
same,mutagenic call,[2],inactive; negative
same,mutagenic call,"Test System: AMES SALMONELLA TYPHIMURIUM, Strain/Indicator: TA100, Metabolic Activation: RAT, LIVER, S-9, AROCLOR 1254, Method: STANDARD PLATE",inactive; negative
O=C=Nc1ccc(Cc2ccccc2N=C=O)cc1,mutagenic call,"Test System: AMES SALMONELLA TYPHIMURIUM, Strain/Indicator: TA100, Metabolic Activation: RAT, LIVER, S-9, AROCLOR 1254 (30%), Method: STANDARD PLATE",inactive; negative
CC(C)CC(=O)CC(C)C,mutagenic call,[4],inactive; negative
same,mutagenic call,[5],inactive; negative
same,mutagenic call,[6],inactive; negative
same,mutagenic call,[7],inactive; negative
same,mutagenic call,[8],inactive; negative
same,mutagenic call,[9],inactive; negative
same,mutagenic call,[10],inactive; negative
same,mutagenic call,"Test System: AMES SALMONELLA TYPHIMURIUM, Strain/Indicator: TA1535, Metabolic Activation: HAMSTER, LIVER, S-9, AROCLOR 1254 (50%), Method: PREINCUBATION",inactive; negative
same,mutagenic call,[11],inactive; negative
same,mutagenic call,[12],inactive; negative
same,mutagenic call,"Test System: AMES SALMONELLA TYPHIMURIUM, Strain/Indicator: TA1535, Metabolic Activation: RAT, LIVER, S-9, AROCLOR 1254 (50%), Method: PREINCUBATION",inactive; negative
same,mutagenic call,[13],inactive; negative
same,mutagenic call,"Test System: AMES SALMONELLA TYPHIMURIUM, Strain/Indicator: TA1537, Metabolic Activation: HAMSTER, LIVER, S-9, AROCLOR 1254 (50%), Method: PREINCUBATION",inactive; negative
same,mutagenic call,[14],inactive; negative
same,mutagenic call,[15],inactive; negative
same,mutagenic call,"Test System: AMES SALMONELLA TYPHIMURIUM, Strain/Indicator: TA1537, Metabolic Activation: RAT, LIVER, S-9, AROCLOR 1254 (50%), Method: PREINCUBATION",inactive; negative

# From PubChem BioAssay AID1259407 (Chemical Carcinogenesis Research Information System (CCRIS), 2018)
